# Data published in ChEMBL document CHEMBL1201862, “PubChem BioAssay data set” (2004).
# The source made the active and inactive calls.
# How the values were obtained:
# [1] = biological target: Cytochrome P450 2C19 (Homo sapiens, UniProt P33261); assay: Cytochrome panel assay with activity outcomes. Panel member name: p450-cyp2c19 Compounds with AC50 equal or less than 10 uM are considered active; format: functional
# [2] = biological target: Cytochrome P450 2D6 (Homo sapiens, UniProt P10635);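 further: CYP2D6 member of a cytochrome P450 panel assay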
# Sequence of Cytochrome P450 2D6 (P10635 whole entry): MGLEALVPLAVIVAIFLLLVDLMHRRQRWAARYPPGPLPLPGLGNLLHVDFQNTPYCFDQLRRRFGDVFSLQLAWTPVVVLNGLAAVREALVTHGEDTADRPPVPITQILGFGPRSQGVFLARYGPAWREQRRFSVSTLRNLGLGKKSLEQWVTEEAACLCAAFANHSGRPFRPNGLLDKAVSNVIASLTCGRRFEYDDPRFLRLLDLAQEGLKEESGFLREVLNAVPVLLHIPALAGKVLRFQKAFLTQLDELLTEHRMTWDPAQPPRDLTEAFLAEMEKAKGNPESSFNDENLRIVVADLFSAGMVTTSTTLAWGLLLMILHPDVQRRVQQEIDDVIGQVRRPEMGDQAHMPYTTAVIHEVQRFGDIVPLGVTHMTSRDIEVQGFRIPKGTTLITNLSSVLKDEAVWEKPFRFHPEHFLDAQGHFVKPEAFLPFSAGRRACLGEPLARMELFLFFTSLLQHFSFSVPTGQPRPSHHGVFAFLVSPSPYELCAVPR
# [3] = biological target: T1, Heat shock factor protein 1 (Mus musculus, UniProt P38532); assay: inhibition of MG132-induced HSE-luciferase signal, confirmation, cell-based, NIH3T3, luminescence, dose retest (AID 2382); format: functional;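 further: NIH3T3 fibroblasts with HSF1-driven luciferase reporter stressed by proteasome inhibitor MG132; luminescence from HSF1-driven luciferase expression after 8 hours of MG132 stress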
# T1 sequence (P38532 whole entry): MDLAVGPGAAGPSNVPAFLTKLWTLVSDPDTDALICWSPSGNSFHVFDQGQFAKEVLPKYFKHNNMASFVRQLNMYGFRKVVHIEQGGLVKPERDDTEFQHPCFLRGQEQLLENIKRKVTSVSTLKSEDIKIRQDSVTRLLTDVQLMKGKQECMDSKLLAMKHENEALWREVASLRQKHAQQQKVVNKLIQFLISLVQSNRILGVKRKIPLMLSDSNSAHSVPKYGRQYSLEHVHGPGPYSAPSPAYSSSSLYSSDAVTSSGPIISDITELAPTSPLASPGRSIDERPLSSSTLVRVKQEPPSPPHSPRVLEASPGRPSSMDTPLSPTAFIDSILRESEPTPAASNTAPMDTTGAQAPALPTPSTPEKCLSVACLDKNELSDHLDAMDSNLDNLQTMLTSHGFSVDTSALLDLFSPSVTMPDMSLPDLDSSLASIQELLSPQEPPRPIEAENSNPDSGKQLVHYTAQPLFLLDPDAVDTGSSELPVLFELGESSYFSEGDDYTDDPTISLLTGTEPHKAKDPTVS
# [4] = cytotoxicity toward NIH3T3 fibroblasts, dose response, counter-screen, cell-based, ATP luminescence, mouse fibroblasts (AID 2010); format: functional;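 further: cells exposed to compound for about 90 hours before reading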
# [5] = inhibitors of intracellular T. cruzi replication, confirmation, NIH3T3 host cells, beta-gal luminescence (AID 2044); format: functional, cell-based;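 further: intracellular parasites grown in NIH/3T3 mouse fibroblasts as host cells; luminescent beta-galactosidase reporter signal from transgenic T. cruzi replicating inside host cells; inhibitors lower the luminescence signal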
# [6] = growth suppression of PTEN-null colon cells, dose response, cell-based, HCT116 PTEN knockout (AID 1047); format: functional;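 further: HCT116 colon tumor cells with PTEN knocked out; cells exposed to compound for 60 hours before readout; potency for loss of cell viability measured by luminescence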
# [7] = growth suppression of beta-catenin-knockout colon cells, dose response, cell-based, HCT116, human colon tumor (AID 1045); format: functional;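 further: HCT116 colon tumor cells with beta catenin knocked out; cells exposed to compound for 60 hours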
# [8] = biological target: T2, RNA-binding protein pos-1 (Caenorhabditis elegans, UniProt G5EF15); assay: inhibitors of POS-1/mex-3 RNA binding, dose response, biochemical, fluorescence polarization (AID 1964);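 further: purified POS-1 fused to maltose binding protein made in E. coli; potency of compounds blocking POS-1 binding to fluorescent RNA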
# T2 sequence (G5EF15 whole entry): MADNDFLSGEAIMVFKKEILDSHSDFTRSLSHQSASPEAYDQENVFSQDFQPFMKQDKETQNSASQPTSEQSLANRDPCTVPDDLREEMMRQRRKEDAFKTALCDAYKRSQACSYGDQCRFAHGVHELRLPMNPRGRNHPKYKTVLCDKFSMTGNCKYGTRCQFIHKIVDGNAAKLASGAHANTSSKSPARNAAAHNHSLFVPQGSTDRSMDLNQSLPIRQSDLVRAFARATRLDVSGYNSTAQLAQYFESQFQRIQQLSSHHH
# [9] = biological target: Cytochrome P450 2C9 (Homo sapiens, UniProt P11712)
# Sequence of Cytochrome P450 2C9 (P11712 whole entry): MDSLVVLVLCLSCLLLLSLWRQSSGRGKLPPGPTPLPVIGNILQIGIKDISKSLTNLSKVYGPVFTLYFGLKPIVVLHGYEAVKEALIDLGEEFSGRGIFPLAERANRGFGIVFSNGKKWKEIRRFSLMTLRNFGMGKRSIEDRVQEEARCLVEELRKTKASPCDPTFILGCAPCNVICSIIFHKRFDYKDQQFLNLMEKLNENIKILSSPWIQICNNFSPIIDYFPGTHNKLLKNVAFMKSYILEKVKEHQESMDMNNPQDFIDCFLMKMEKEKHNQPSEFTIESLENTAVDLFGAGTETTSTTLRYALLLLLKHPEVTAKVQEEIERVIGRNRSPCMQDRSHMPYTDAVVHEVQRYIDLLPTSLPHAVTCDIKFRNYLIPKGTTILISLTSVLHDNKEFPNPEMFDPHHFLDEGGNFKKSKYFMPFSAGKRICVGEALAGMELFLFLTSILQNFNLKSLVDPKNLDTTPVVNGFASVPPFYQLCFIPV
# [10] = biological target: T3, Zinc finger protein mex-5 (Caenorhabditis elegans, UniProt Q9XUB2); assay: MEX-5/TCR-2 RNA interaction inhibitors, dose response, biochemical, C. elegans, fluorescence polarization (AID 1960)
# T3 sequence (Q9XUB2 whole entry): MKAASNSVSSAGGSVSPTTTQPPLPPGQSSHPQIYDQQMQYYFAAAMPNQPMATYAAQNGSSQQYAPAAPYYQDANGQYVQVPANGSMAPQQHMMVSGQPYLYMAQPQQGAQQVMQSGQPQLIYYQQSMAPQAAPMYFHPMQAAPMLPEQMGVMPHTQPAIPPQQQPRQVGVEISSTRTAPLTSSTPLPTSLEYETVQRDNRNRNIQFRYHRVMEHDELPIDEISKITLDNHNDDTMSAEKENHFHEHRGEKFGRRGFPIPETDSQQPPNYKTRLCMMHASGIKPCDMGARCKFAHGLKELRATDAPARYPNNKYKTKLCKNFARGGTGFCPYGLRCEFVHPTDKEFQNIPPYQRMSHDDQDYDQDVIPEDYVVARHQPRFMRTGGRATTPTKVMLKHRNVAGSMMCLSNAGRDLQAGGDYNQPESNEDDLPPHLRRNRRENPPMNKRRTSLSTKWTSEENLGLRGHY
# [11] = test system: Streptococcus sp. 'group A'; assay: growth inhibition of control SK(-) GAS strain, dose response, counter-screen for streptokinase expression inhibitor project, luminescence, kanamycin, BacTiterGlo, confirmation (AID 1900); format: functional, organism-based
# [12] = test system: Streptococcus; assay: Group A Streptococcus viability loss, dose response, counter-screen for streptokinase expression inhibitor project, luminescence, BacTiterGlo (AID 1915); format: functional, organism-based;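 further: potency for reduction of bacterial viability or growth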
# Sequence of Cytochrome P450 2C19 (P33261 whole entry): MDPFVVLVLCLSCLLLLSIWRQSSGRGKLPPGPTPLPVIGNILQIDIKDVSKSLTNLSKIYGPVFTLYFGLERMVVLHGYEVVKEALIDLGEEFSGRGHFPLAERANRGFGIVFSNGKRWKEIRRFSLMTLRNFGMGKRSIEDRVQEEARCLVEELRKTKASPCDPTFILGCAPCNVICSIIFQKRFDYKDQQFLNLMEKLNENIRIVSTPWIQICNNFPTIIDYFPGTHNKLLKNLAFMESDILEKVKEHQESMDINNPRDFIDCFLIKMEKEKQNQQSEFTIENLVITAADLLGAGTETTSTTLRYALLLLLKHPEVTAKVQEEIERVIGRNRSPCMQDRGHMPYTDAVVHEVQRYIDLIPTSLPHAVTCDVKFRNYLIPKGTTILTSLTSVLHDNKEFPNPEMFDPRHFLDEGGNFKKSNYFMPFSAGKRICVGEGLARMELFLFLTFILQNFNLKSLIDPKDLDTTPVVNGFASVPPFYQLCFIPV
compound,measurement,setting,value
Ic1cncc(OC[C@@H]2CCN2)c1,AC50,[1]; read-out: AC50,15.8 µM (inconclusive)
same,AC50,[2],39.8 µM (inconclusive)
COc1cc(NC(=O)c2cccs2)c(C(=O)OCC(=O)c2cc(C)n(-c3ccc(F)cc3)c2C)cc1OC,EC50,[3],4.87 µM (active)
CCCCCCC1CC(C)(C(=O)CNc2nncs2)OC1=O (stereo not drawn),EC50,[4],23.8 µM (active)
same,EC50,[5],1.3 µM (active)
O=C(NC1CCCCC1)C(c1ccc(F)cc1)N(C(=O)Cc1ccsc1)c1ccc(F)cc1 (stereo not drawn),EC50,[4],> 60 µM (not active)
same,EC50,[5],> 60 µM (not active)
O=C(/C(=C(\[O-])c1ccccc1)[n+]1ccc2ccccc2c1)c1ccc([N+](=O)[O-])cc1,EC50,[3],> 195 µM (not active)
CC(=O)Nc1nc(-c2ccccc2)nc(-c2ccccc2OC(C)=O)n1,EC50,[6],73.1 µM (active)
same,EC50,[7],118 µM (active)
CC1CCN(C(=O)CSc2nc(O)c3cnn(-c4ccc(Cl)cc4)c3n2)CC1,EC50,[3],> 195 µM (not active)
Cc1ccc(CCNC(=O)CN2C(=O)COc3ccccc32)cc1,EC50,[4],> 60 µM (not active)
same,EC50,[5],16.4 µM (active)
CN1CCN(c2ccc(S(=O)(=O)N3CCCCC3)cc2NC(=O)c2ccc(C#N)cc2)CC1,EC50,[4],> 60 µM (not active)
same,EC50,[5],1.14 µM (active)
C#CCN1C(=O)C(O)(CC(=O)c2ccc3c(c2)OCCO3)c2ccccc21 (stereo not drawn),EC50,[6],29.7 µM (active)
same,EC50,[7],29.7 µM (active)
Cc1noc(C)c1-c1nc(NCc2cccs2)c2ccccc2n1,AC50,[2],3.98 µM (inconclusive)
COc1ccc(CNc2cc(-c3cccnc3)ncn2)c(OC)c1,AC50,[2],39.8 µM (inconclusive)
CC(C)(C)N1[C@@H](CC(=O)O)c2cc(C(F)(F)F)ccc2S1(=O)=O,EC50,[3],> 195 µM (not active)
CC(C)c1ccc(/C=C/C(=O)Nc2nc3ccc([N+](=O)[O-])cc3s2)cc1,EC50,[6],23.3 µM (active)
same,EC50,[7],41.3 µM (active)
Cc1ccc(NC(=O)CCN2C(=O)c3ccncc3C2=O)cc1,AC50,[1]; read-out: AC50,39.8 µM (inconclusive)
CCc1ccccc1N1C(=O)/C(=C/c2ccc(N3CCN(C)CC3)o2)C(=O)NC1=S,EC50,[8],> 300 µM (inconclusive)
CCCCCCn1c(N)c(C(=O)NCCN2CCOCC2)c2nc3ccccc3nc21,EC50,[6],17.7 µM (active)
same,EC50,[7],19.7 µM (active)
CC(C)OCCCn1c(=S)[nH]c2ncccc2c1=O,AC50,[9],1.78 µM (inconclusive)
CCOC(=O)C1=NNC2(c3ccc(Cl)cc3)C(=O)N(c3cc(C)cc(C)c3)C(=O)C12 (stereo not drawn),AC50,[1]; read-out: AC50,2.51 µM (inconclusive)
CC(=O)C1=C(c2ccccc2)NC(=O)NC1c1ccc(O)c(O)c1 (stereo not drawn),EC50,[8],> 300 µM (not active)
same,EC50,[10],43.4 µM (active)
O=C(NCc1ccccc1)C1=C[C@@H](c2ccc(C(F)(F)F)cc2)C[C@@H](OCc2ccc(CO)cc2)O1,EC50,[4],> 60 µM (not active)
same,EC50,[5],0.669 µM (active)
COc1ccc(CCn2c(=N)c(C(=O)NC3CCCCC3)cc3c(=O)n4ccccc4nc32)cc1,EC50,[8],21.6 µM (active)
same,EC50,[10],8.45 µM (inconclusive)
CCCCCCCC(=O)NNC(=O)c1c(O)c2ccccc2n(CC)c1=O,EC50,[11],2.31 µM (active)
same,EC50,[12],6.17 µM (active)
COc1ccc(Cl)cc1C(=O)C1CCCN(Cc2cnc(N3CCOCC3)s2)C1 (stereo not drawn),EC50,[4],> 60 µM (not active)
same,EC50,[5],0.135 µM (active)
O=C(/C=C/c1ccco1)NC(=S)NNC(=O)c1ccco1,EC50,[8],98.1 µM (active)
same,EC50,[10],15.7 µM (active)
Cc1ncn(-c2ccccc2O)c1C,AC50,[2],3.16 µM (inconclusive)
Cc1ccc(C)c(-c2cc(C(=O)NCc3cccs3)c3ccccc3n2)c1,AC50,[1]; read-out: AC50,3.55 µM (inconclusive)
same,AC50,[2],14.1 µM (inconclusive)
Cc1cc(N2C(=O)C(O)=C(C(=O)c3ccco3)C2c2ccc(O)cc2)no1 (stereo not drawn),AC50,[1]; read-out: AC50,35.5 µM (inconclusive)
Cc1ccc(-n2c(N)c(C(=O)Nc3c(C)n(C)n(-c4ccccc4)c3=O)c3nc4ccccc4nc32)cc1C,EC50,[6],8.61 µM (active)
same,EC50,[7],11.5 µM (active)
CC(C)=C1C2CCC1C1C(=O)N(c3ccc(C)c(C)c3)C(=O)C21 (stereo not drawn),EC50,[3],> 195 µM (not active)
COc1ccc(CNC(=O)C(=O)c2cn(CC(=O)N3CCOCC3)c3ccccc23)cc1,EC50,[3],> 195 µM (not active)
Cc1ccc(-c2c[n+](CC(=O)c3ccc(Br)cc3)c3n2CCCCC3)cc1,EC50,[4],> 60 µM (not active)
same,EC50,[5],0.465 µM (active)
COCc1cc(C)nc(SCC(=O)Nc2cc(C(F)(F)F)ccc2N2CCOCC2)c1C#N,EC50,[4],> 60 µM (not active)
same,EC50,[5],0.807 µM (active)
O=C(Nc1ccccc1C(=O)Nc1nnc(C(F)(F)F)s1)c1ccccc1Cl,EC50,[11],1.36 µM (active)
same,EC50,[12],3.2 µM (active)
Oc1cccc2ccc(/C=C/c3ccc(Br)s3)nc12,EC50,[11],2.56 µM (active)
same,EC50,[12],4.33 µM (active)
Cc1cc(C)nc(NN2C(=O)C=CC2=O)n1,EC50,[8],> 300 µM (not active)
same,EC50,[10],40.8 µM (active)
COc1cccc(Cn2c(=O)cnc3cnc(Nc4cccc(OC)c4)nc32)c1,AC50,[2],39.8 µM (inconclusive)
Cc1ccc(N2CC(C(=O)Nc3nnc(SCCN4CCOCC4)s3)CC2=O)cc1 (stereo not drawn),EC50,[3],> 195 µM (not active)
COc1ccc(NC(=O)CN(C)S(=O)(=O)c2ccc3c(c2)CCC(=O)N3)c(OC)c1,EC50,[3],> 195 µM (not active)
CN(CCOc1ccccc1)CC(=O)Nc1ccc(Cl)c(S(=O)(=O)N(C)C)c1,EC50,[4],> 60 µM (not active)
same,EC50,[5],0.503 µM (active)
C=CCN1C(=O)NC(=O)/C(=C(/CC)NC2CC2)C1=O,AC50,[1]; read-out: AC50,22.4 µM (inconclusive)
same,AC50,[2],1.12 µM (inconclusive)
NS(=O)(=O)c1ccc2c(c1)C1C=CCC1C(C1CC=CCC1)N2 (stereo not drawn),EC50,[8],18.3 µM (active)
same,EC50,[10],20.7 µM (inconclusive)
Cc1c(C(=O)O)cccc1-n1c(C)cc(/C=C(/C#N)C(=O)NCc2ccccc2)c1C,EC50,[8],> 300 µM (not active)
same,EC50,[10],> 300 µM (not active)
CCOc1ccc2ccccc2c1C1NC(=O)N(C)C(C)=C1C(=O)OCCOC (stereo not drawn),EC50,[8],> 300 µM (not active)
same,EC50,[10],> 300 µM (not active)
COC(=O)N1CCC2(CCN(C(=O)Nc3ccccc3)CC2)CC1,AC50,[1]; read-out: AC50,20 µM (inconclusive)
COc1ccc(CNc2ccc3c(c2)CCC3)cc1OC,EC50,[4],> 30 µM (not active)
same,EC50,[5],15.4 µM (active)
NCCNc1ncnc2ccc(Cl)cc12,AC50,[2],3.16 µM (inconclusive)
CN(C)CCCn1c2ccccc2c2cnccc21,AC50,[2],3.98 µM (inconclusive)
Fc1ccc(SCCc2ccncc2)cc1,EC50,[4],> 30 µM (not active)
same,EC50,[5],1.27 µM (active)
CCC(C)NCCOCCOc1ccc(Br)cc1 (stereo not drawn),EC50,[4],> 60 µM (not active)
same,EC50,[5],0.106 µM (active)
COc1ccc(OC)c(Nc2nc(-c3sc(NC(=O)C(C)(C)C)nc3C)cs2)c1,EC50,[3],> 195 µM (not active)
C(=N\n1cncn1)/c1ccc(N2CCOCC2)cc1,EC50,[3],> 195 µM (not active)
CN(CCCNC(=O)c1ccc(/C=N/O)nc1)CCCN(C)Cc1ccccc1,AC50,[1],inconclusive
FC(F)(F)COc1nc(N/N=C/c2cccnc2)nc(N2CCCCC2c2ccccn2)n1 (stereo not drawn),EC50,[4],> 60 µM (not active)
same,EC50,[5],2.37 µM (active)
C/C(=N\Nc1nncc2ccccc12)c1ccc(Cl)c([N+](=O)[O-])c1,EC50,[3],> 195 µM (not active)
Cc1nn(-c2ccccn2)c2c1C(c1ccccc1Cl)C1=C(N2)c2ccccc2C1=O (stereo not drawn),EC50,[6],24.7 µM (active)
same,EC50,[7],24.9 µM (active)
